Measurements reported in US7081467B2, “C2-disubstituted indan-1-ones and their derivatives, processes for their preparation and their use as pharmaceuticals” (Sanofi-aventis Deutschland GmbH, priority 2001, dated 2006).

Experiments:
female NMRI mice = assay: Anorectic action: cumulative milk consumption after 24 h feed removal; assay type: in vivo; conditions: feed removed 24 h, dose 20 mg/kg (ip or po, route not specified)
Experimental: The anorectic action was tested on female NMRI mice. After removal of feed for 24 hours, the preparation to be tested was administered intraperitoneally (ip) or by gavage (po). The animals were housed singly and, with free access to drinking water, they were offered evaporated milk 30 minutes after administration of the preparation. The consumption of evaporated milk was determined and the general behavior of the animals was monitored every half an hour for 7 hours. The measured milk consumption was compared to that of vehicle-treated control animals.

melting point: 150 °C
SMILES: CS(=O)(=O)C1(F)Cc2cc(Cl)ccc2C1=O (stereo not drawn) [Example 1, 5-Chloro-2-fluoro-2-methanesulfonylindan-1-one]
Reduction in cumulative milk consumption as % of the control (female NMRI mice; compared with vehicle-treated control animals): 48%
cumulative milk consumption by treated animals (female NMRI mice; evaporated milk offered 30 min after administration, monitored for 7 hours): 5/2.00 ml
